Measurements as given in patent US11419878B2, “Medicine obtained by combining FXR agonist and ARB” (Intercept Pharmaceuticals, Inc., priority 2016, dated 2022).

Experiments:
[1] = tested on: α-smooth muscle actin (α-SMA); assay: Rat NASH model, immunohistological staining of liver sections with α-SMA antibody (HSC activation); format: in vivo; settings: OLETF rats, PS 8 weeks, obeticholic acid 30 mg/kg/day and/or losartan 30 mg/kg/day oral; for α-SMA index (α-SI) compared to the positive control group: p<0.01
Protocol: Using the liver sections from the rats in the various groups obtained in working example 1, an immunohistochemical study by immunohistological staining with α-smooth muscle actin (α-SMA) antibody and a quantitative analysis of transforming growth factor-β1 TGF-β1) and collagen (α1(I) procollagen) mRNA expression were conducted. α-SMA is known to be an indicator (marker) of activation of hepatic stellate cells (HSCs) (also known as hepatic star cells). Moreover, activation of hepatic stellate cells (HSC), overproduction of TGF-β1 (a fibrosis-promoting cytokine) accompanying said activation, and overproduction of extracellular matrix components such as collagen are thought to play a central role in the mechanism of progressive hepatic fibrosis in NASH. For this reason, mRNA expression of TGF-β1 and collagen (α1(I) procollagen) can be a fibrosis indicator (marker).
Using the same method as described under [Histological analysis] in working example 1 above, except that immunohistological staining with α-SMA antibody was used instead of Sirius Red staining, a comparison of the micrographs among the various groups and a semiquantitative analysis of the immunohistochemical characteristics of the collected stained section images were carried out, and the blocking effect of obeticholic acid and losartan (administration groups, combined administration group) on HSC activation in the progression of hepatic fibrosis was evaluated.

[2] = tested on: TGF-β1; assay: HHSC fibrosis marker gene expression, RT-PCR, TGF-β1; format: cell-based, human; settings: AT-II 10^-6M + LPS 10^-5M; ARB 10^-6M, obeticholic acid 5×10^-6M; 24 hours; monotherapy vs G2AL, combination vs monotherapy groups
Protocol: (§1) The various combined effects of obeticholic acid and three types of ARBs (losartan, valsartan, and candesartan) were confirmed in an in vitro cell system experiment. Specifically, using human hepatic stellate cells (HHSC), which are implicated in the main mechanism of progression of hepatic fibrosis in NASH, the effects of administration of obeticholic acid in combination with the three ARBs of inhibiting HHSC proliferation capacity and the expression of fibrosis markers were evaluated according to the following method. Human hepatic stellate cells (HHSC) (also referred to as human hepatic star cells) Obeticholic acid (obtained from Intercept Pharmaceuticals, Inc. via Sumitomo Dainippon Pharma Co., Ltd.) was used as an FXR agonist, and commercial losartan (potassium salt of losartan; referred to in this working example simply as “losartan”) and valsartan and candesartan ([…] of candesartan; referred to in this working example simply as “candesartan”) were used as ARBs. Angiotensin II (AT-II) and/or lipopolysaccharide (LPS) were used (both AT1-mediated AT-II signalling and TLR4-mediated LPS signaling are known to play major roles in HSC activation and the progression of hepatic fibrosis). With respect to the effect of inhibiting fibrosis marker gene expression, collagen production capacity and TGF-β production capacity were evaluated by the RT-PCR method. 1) HHSCs were inoculated onto a 6-well plate in the amount of 300,000 cells/2 ml and allowed to proliferate in 1% FBS DMEM medium for 24 hours. 2) After 24 hours, the cells were divided into the following 7 groups and transferred to culture medium after adding the following drugs and/or reagents. Losartan was used as an ARB. Negative control group (G1): No drugs added (control) […] AT-II (10^-6M) Positive control group L […]): LPS (10^-5M) Positive control group AL ([…]): (10^-6M)+LPS (10^-5M) Obeticholic acid administration (G3): AT-II (10^-6M)+LPS (10^-5M)+obeticholic acid (5×10^-6M) ARB administration (G4): AT-II (10^-6M)+LPS (10^-5M)+ARB (10^-6M) Obeticholic acid+ARB combined administration (G5): AT-II (10^-6M)+LPS (10^-5M)+obeticholic acid (5×10^-6M)+ARB (10^-6M) […] Evaluations were conducted in the five groups G1, G2AL, G3, G4, and G5.

[3] = tested on: α1(I) procollagen; assay: HHSC fibrosis marker gene expression, RT-PCR, α1(I) procollagen; format: cell-based, human; settings: AT-II 10^-6M + LPS 10^-5M; ARB 10^-6M, obeticholic acid 5×10^-6M; 24 hours; monotherapy vs G2AL, combination vs monotherapy groups
Protocol: as §1

Structure (SMILES) | increase in activated hepatic stellate cells (Ac-HSCs), micrographs of α-SMA stained sections [1] | α-SMA index (α-SI) compared to the positive control group [1] | TGF-β1 mRNA expression induced by AT-II and LPS in HHSC [2] | α1(I)-procollagen mRNA expression induced by AT-II and LPS in HHSC [3]
CCCCc1nc(Cl)c(CO)n1Cc1ccc(-c2ccccc2-c2nn[nH]n2)cc1 [losartan] | moderately inhibited | moderate but significant decreases | statistically significant inhibition | statistically significant inhibition
CC[C@H]1[C@@H](O)[C@@H]2[C@H](CC[C@]3(C)[C@@H]([C@H](C)CCC(=O)O)CC[C@@H]23)[C@@]2(C)CC[C@@H](O)C[C@@H]12 [obeticholic acid, 3α,7α-dihydroxy-6α-ethyl-5β-cholan-24-oic acid] | moderately inhibited | moderate but significant decreases | statistically significant inhibition | statistically significant inhibition
